This note sets out measurements from patent publication US20020012738A1, “Low calorie fat compositions” (priority 2000, published 2002).

Data set [1] deals with T1, porcine lipase (Sus scrofa, UniProt P00591).
T1 sequence (P00591 1-450): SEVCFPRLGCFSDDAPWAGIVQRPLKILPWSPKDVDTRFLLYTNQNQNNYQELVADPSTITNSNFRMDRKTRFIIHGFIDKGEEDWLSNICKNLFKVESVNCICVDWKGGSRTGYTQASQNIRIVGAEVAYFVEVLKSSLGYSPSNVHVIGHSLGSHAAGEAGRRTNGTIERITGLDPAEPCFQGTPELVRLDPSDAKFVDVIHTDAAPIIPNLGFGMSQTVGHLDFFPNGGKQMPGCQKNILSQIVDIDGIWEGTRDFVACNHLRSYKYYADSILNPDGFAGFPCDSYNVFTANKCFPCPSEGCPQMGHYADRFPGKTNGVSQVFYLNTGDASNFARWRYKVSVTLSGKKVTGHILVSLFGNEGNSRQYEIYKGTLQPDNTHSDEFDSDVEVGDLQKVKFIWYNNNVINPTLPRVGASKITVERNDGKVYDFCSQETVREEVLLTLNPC
Nature of the data set: Hydrolysis by pancreatic lipase, organic solution assay. Particulars: 30° C., tamyl alcohol, Bis-Tris propane buffer pH 7.8, 300 mg fat, unit assumed. Format: in vitro ADME. As to the method: The digestibility of the wax esters derived from long chain and medium chain combinations (III and IV) of the present invention were done to compare with triolein and wax esters derived from long chain acids and long chain alcohols. The in-vitro assays were done using two emulsion systems as in the following procedure. Each digest was carried out with 300 mg of the fat/fat substitute, 9 ml of the ^tamyl alcohol, 0.5 ml of Bis-Tris propane buffer (10 mM, pH 7.8) and 0.5 ml of porcine lipase (20 mg/mi). The reaction was incubated at 30° C. and the reaction stopped by adding 1 ml aliquots to 3 ml of isopropanol/heptane/sulfuric acid (40/10/1). The product was extracted with heptane and analyzed by GC and GC-MS at 360° C.

For data set [2], the target named is T1, porcine lipase. Nature of the data set: Hydrolysis by pancreatic lipase, aqueous emulsion assay. Particulars: 30° C., Bis-Tris propane buffer pH 7.8, HMPC, sodium cholate, 300 mg fat, unit assumed. The data set is classed as in vitro ADME. How it is done: The digestibility of the wax esters derived from long chain and medium chain combinations (III and IV) of the present invention were done to compare with triolein and wax esters derived from long chain acids and long chain alcohols. The in-vitro assays were done using two emulsion systems as in the following procedure. A mixture of 300 mg of the fat/fat substitute, 4 ml of Bis-Tris propane buffer (10 mM, pH 7.8), 5 ml of hydroxyproylmethylcellulose (HMPC, […]), 0.5 ml of sodium cholate (0.1 M) were sonicated to disperse the fats and incubated at 30° C. Porcine lipase (0.5 ml, 20 mg/ml) was added. The analysis of the reaction was carried out as in the above organic solution assay.

As for `CCCCCCCCCCCCCCCCCCCCOC(=O)CCCCC` [Arachidyl caproate], the Hydrolysis by pancreatic lipase, Organic Solution Assay 24 hr in data set [1] stood at 2.2%. Further, the Hydrolysis by pancreatic lipase, Aqueous Emulsion Assay 24 hr in data set [2] came to 4%.

With `CCCCCCCCCCCCCCCCCCCCOC(=O)CCCCCCC` [Arachidyl caprylate], the Hydrolysis by pancreatic lipase, Organic Solution Assay 24 hr in data set [1] is 7.6%. Further, in data set [2], the Hydrolysis by pancreatic lipase, Aqueous Emulsion Assay 24 hr worked out at 14.7%.

On to `CCCCCCCCCCCCCCCCCCCC(=O)OCCCCCC` [Hexyl arachidate], for which the Hydrolysis by pancreatic lipase, Organic Solution Assay 24 hr in data set [1] was found to be 5.4%. Moreover, the Hydrolysis by pancreatic lipase, Aqueous Emulsion Assay 24 hr in data set [2] was 11.7%.

In the case of `CCCCCCCC/C=C\CCCCCCCC(=O)OCC(COC(=O)CCCCCCC/C=C\CCCCCCCC)OC(=O)CCCCCCC/C=C\CCCCCCCC` [Triolein, reference compound], the Hydrolysis by pancreatic lipase, Organic Solution Assay 24 hr in data set [1] came to 69.2%. For the same molecule, the Hydrolysis by pancreatic lipase, Aqueous Emulsion Assay 24 hr in data set [2] was 93.3%.
